Test system: harmaline-induced tremor
Assay: harmaline-induced tremor model in rats
Assay type: in vivo
From the text: The identification of a compound as a histamine H3 inverse agonist or a histamine H3 antagonist may be readily determined without undue experimentation by methodology well known in the art. The efficacy of a histamine H3 inverse agonist or a histamine H3 antagonist in treating stroke may be readily determined without undue experimentation by methodology well known in the art, for example the harmaline-induced tremor model in rats, Sinton, et al., Pflugers Archive Eur. J. Phys., 414(1) 31-36 (1989). […] The ability of the histamine H3 inverse agonist or histamine H3 antagonist to be used in the present invention to treat stroke may be determined by these methods.

SMILES: N#Cc1ccc(-c2cnc(OC3CCN(C4CCCC4)CC3)nc2)cc1 [2-(1-cyclopentylpiperidine-4-yloxy)-5-(4-cyanophenyl)pyrimidine]
- reversal of harmaline-induced tremor (dose of 1 mg/kg): 8.4%
- reversal of harmaline-induced tremor (dose of 3 mg/kg): 63.3%
- reversal of harmaline-induced tremor (dose of 10 mg/kg): 84.4%

Source: patent US20080139614A1, “Treatment Of Stroke With Histamine H3 Inverse Agonists Or Histamine H3 Antagonists” (priority 2004, published 2008)
